Experimental data published in paper PMC12830989, “Subcellular glycan-mannose receptor binding kinetics correlate with myeloid cell function” (Nature Communications, 2025).
Values joined by “and” are separate entries in the source; they are usually repeats but may differ in a detail not shown here. Identical values can stand only once. sCy5 = sulfo-Cy5

Test system: WT BMDC (CD11c+)
Experiment: Glycan SLP uptake by flow cytometry (phagocytic index), WT BMDC
Type: cell-based, mouse
Details: for phagocytic index: Fig 4d source data, BMDC incubated 1 h with probe, CD11c+ cells, per experiment, two technical replicates
Experimental: 2.5 x 10^5 WT, MR^−/− BMDC or BMDM were seeded after treatment with polarizing stimulus as described below in a 96 well v-bottom plate (Sarstedt, 82.1583001). The next day, Glycan SLP probes were added to the cells at 250 nM and incubated for 1 h at 37 °C. Active uptake was halted by addition of ice-cold PBS and washed twice with PBS + 2% FCS + 2 mM EDTA (300 rcf, 5 min., rt). Cells were stained with a selection of the following stains and antibodies: Zombie Yellow (Biolegend, 423103, 1:500), TruStain FcX (Biolegend, cat no 101319, 1:100), CD11c - eFluor450 (clone: N418, eBioscience, cat no 48-0114-82, dilution 1:200), CD206-AF488 or AF647 (clone: MR5D3, Biorad, MCA2235A488T, 1:20), CD86-PerCP (Biolegend, cat no 105025, clone GL-1, 1:200), F4/80-APC-Cy7 (Biolegend, cat no 123117, clone BM8, dilution 1:400), MHC-II-AF488 (Biolegend, cat no 107615, clone M5/114.15.2, dilution 1:1000) for 30 min. on ice. Then cells were washed twice with PBS + 2% FCS + 2 mM EDTA and acquired on Guava EasyCyte 12HT. For BMDM uptake and characterization, an identical procedure was followed but acquisition was performed on Sony ID7000 spectral flow cytometer. Analysis was performed using FlowJo v8. Phagocytic index (PI) was calculated according to equation 1. Statistical analysis and plotting were performed using GraphPad Prism V10.1 PI=%sCy5^+cellsxMFIsCy5^+cells−%sCy5^−cellsxMFIsCy5^−cells

## Ac-Lys(triMan)-TEG-Asp-Glu-Val-Ser-Gly-Leu-Glu-Gln-Leu-Glu-Ser-Ile-Ile-Asn-Phe-Glu-Lys-Leu-Ala-Ala-Ala-Ala-Ala-Lys(sCy5)-NH2 (DEVSGLEQLESIINFEKLAAAAAK; Ac-Lys(triMan)-TEG, sulfo-Cy5, C-amide; printed: Asp-Glu-Val-Ser-Gly-Leu-Glu-Gln-Leu-Glu-Ser-Ile-Ile-Asn-Phe-Glu-Lys-Leu-Ala-Ala-Ala-Ala-Ala-Lys) [1 Tri(4), monovalent trimannosylated OVA SLP with sulfo-Cy5]
  phagocytic index: 866.48 and 744.547 and 660.373 and 1168.46 and 1459 and 1224

## Ac-Lys(Man)-Gly-Lys(Man)-TEG-Asp-Glu-Val-Ser-Gly-Leu-Glu-Gln-Leu-Glu-Ser-Ile-Ile-Asn-Phe-Glu-Lys-Leu-Ala-Ala-Ala-Ala-Ala-Lys(sCy5)-NH2 ({Ac-K(Man)-Gly-K(Man)-TEG}-DEVSGLEQLESIINFEKLAAAAAK(sCy5)-NH2) [2 Mono(2), bivalent monomannosylated OVA SLP with sulfo-Cy5]
  phagocytic index: 468.878 and 326.94 and 575.997 and 867.184 and 474 and -18

## Ac-Lys(triMan)-Gly-Lys(triMan)-TEG-Asp-Glu-Val-Ser-Gly-Leu-Glu-Gln-Leu-Glu-Ser-Ile-Ile-Asn-Phe-Glu-Lys-Leu-Ala-Ala-Ala-Ala-Ala-Lys(sCy5)-NH2 (DEVSGLEQLESIINFEKLAAAAAK; two Lys(triMan), TEG, sulfo-Cy5, C-amide; printed: Asp-Glu-Val-Ser-Gly-Leu-Glu-Gln-Leu-Glu-Ser-Ile-Ile-Asn-Phe-Glu-Lys-Leu-Ala-Ala-Ala-Ala-Ala-Lys) [2 Tri(5), bivalent trimannosylated OVA SLP with sulfo-Cy5]
1 h incubation, sCy5 signal by flow cytometry
  uptake (phagocytic index) by BMDC: most effectively taken up
  phagocytic index: 739.67 and 711.569 and 1725.6 and 1909.99 and 2022 and 1371

## Ac-Lys(Man)-Lys(Man)-Lys(Man)-Lys(Man)-Lys(Man)-Lys(Man)-TEG-Asp-Glu-Val-Ser-Gly-Leu-Glu-Gln-Leu-Glu-Ser-Ile-Ile-Asn-Phe-Glu-Lys-Leu-Ala-Ala-Ala-Ala-Ala-Lys(sCy5)-NH2 ({Ac-K(Man)-K(Man)-K(Man)-K(Man)-K(Man)-K(Man)-TEG}-DEVSGLEQLESIINFEKLAAAAAK(sCy5)-NH2) [6 Mono(3), hexavalent monomannosylated OVA SLP with sulfo-Cy5]
  phagocytic index: 351.961 and 267.849 and 647.297 and 867.13 and 676 and 415

## Ac-Lys(Man)-TEG-Asp-Glu-Val-Ser-Gly-Leu-Glu-Gln-Leu-Glu-Ser-Ile-Ile-Asn-Phe-Glu-Lys-Leu-Ala-Ala-Ala-Ala-Ala-Lys(sCy5)-NH2 ({Ac-K(Man)-TEG}-DEVSGLEQLESIINFEKLAAAAAK(sCy5)-NH2) [1 Mono(1), monovalent monomannosylated OVA SLP with sulfo-Cy5]
  phagocytic index: 18.2246 and 7.8718 and 19.8915 and 23.9776 and -43 and 24

## Ac-Lys(triMan)-Lys(triMan)-Lys(triMan)-Lys(triMan)-Lys(triMan)-Lys(triMan)-TEG-Asp-Glu-Val-Ser-Gly-Leu-Glu-Gln-Leu-Glu-Ser-Ile-Ile-Asn-Phe-Glu-Lys-Leu-Ala-Ala-Ala-Ala-Ala-Lys(sCy5)-NH2 (DEVSGLEQLESIINFEKLAAAAAK; six Lys(triMan), TEG, sulfo-Cy5, C-amide; printed: Asp-Glu-Val-Ser-Gly-Leu-Glu-Gln-Leu-Glu-Ser-Ile-Ile-Asn-Phe-Glu-Lys-Leu-Ala-Ala-Ala-Ala-Ala-Lys) [6 Tri(6), hexavalent trimannosylated OVA SLP with sulfo-Cy5]
  phagocytic index: 418.118 and 415.333 and 1097.76 and 913.574 and 294 and 434
